The values that follow come from patent US8703066B2, “Sterilization system and method” (Noxilizer, Inc., priority 2004, dated 2014).

The subject of test [1] is sporulated B. subtilis var. niger. Description: Sterilization with varying quantities of delivered nitric oxide, contaminated stainless steel strips. Type of test: cell-based. To be noted: 5%, 2.5% and 1% NO in air, five minutes, culture in LB 48 hours then plating. The text has this: A blood storage container (Nexell, Irvine, Calif.; Lifecell PL732 plastic tissue culture flask) is used as the sterilization chamber. Strips of stainless steel are dipped in 10^6 CFU/ml sporulated B. subtilis var. niger (as determined by ABS595 standardization curves). The strips are allowed to air dry, placed in the sterilization chamber, and then the sterilization chamber is heat sealed. The sterilization chamber is evacuated using a syringe and controlling air flow with the sterilization chamber valves. A known quantity of air is added to the vessel using a graduated syringe.
An NO-generating donor compound is placed in a 7 cc gas generation chamber. The gas generation chamber is attached to the storage container through luer lock connectors. The liquid activator, 3.0N HCl is added to the gas generation chamber and the generated gas is allowed to flow into the sterilization chamber. After a brief generation period, the gas is sealed in the sterilization chamber using a compression valve.
Varying quantities of NO gas, namely 10%, 5%, 2.5% and 1% NO, are tested for their efficacy in the sterilization chamber. The quantity (%) of NO gas generated and added to the sterilization chamber is calculated from the number of moles of NO required to be generated to result in the desired percentage of NO. […]

In test [2] the test system is Bacillus subtilis var niger 9372. Kind of test: Pressure vessel sterilization of contaminated stainless steel coupons with NO gas. The class given is cell-based. To be noted: five minute sterilization cycle; pure NO at atmospheric pressure; stainless steel coupons dipped in at least 10^8 CFU/ml. The source says: (§1) A glass pressure vessel is connected to a scrubbed NO gas tank source. The pressure vessel is purged five times with Argon gas to eliminate atmospheric oxygen (preventing formation of NO2.) and an additional three purges of NO are used to ensure a pure NO atmosphere and consistent results of bactericidal activity. To test the sterilization method: Bacillus subtilis var niger 9372 is used (after obtaining >80% endospore formation; a standard for ethylene oxide and autoclave test sterilization), as well as organisms commonly found on the epidermis: Staphylococcus aureus (str 21769) and Staphylococcus epidermides (str 21977), and the enteric organisms: Klebsiella pneumoniae (str 21991) and Serratia marcesens (str 21140). This particular Serratia strain has been found in previous studies to be one of the most resistant bacteria to the bactericidal effects of NO in culture (Raulli et al., 2002).
(§2) The organisms are cultured overnight in BHI. The cultures contained at least 10^8 CFU/ml based on standardized ABS595 curves for each organism. Stainless steel coupons, 3×1 cm, are dipped in the cultures, and either dried in ambient air first or placed in the pressure vessel still wet from the culture dip. The coupons are exposed to NO gas at atmospheric pressure for decreasing time periods starting with 45 min and working back to 5 min. Control samples are handled identically, except the pressure vessel was gassed with nitrogen.
(§3) The sealed vessel is carefully opened in a laminar flow hood after all the NO had been purged with Argon. The samples are removed aseptically with sterilized tongs and placed in culture tubes containing sterile BHI media. The samples are incubated in a vigorously shaking waterbath at 35° C. The samples are observed (digitally photographed) 24 hrs later, placed back in the waterbath and are measured for absorbance 72 hrs later. The controls had >10^8 CFU/ml after 24 hrs.

The subject of test [3] is Klebsiella pneumoniae (str 21991). The description is as above. The class given is cell-based. The settings on record: five minute sterilization cycle; pure NO at atmospheric pressure; stainless steel coupons dipped in at least 10^8 CFU/ml.
Description: as §1, §2, §3

The subject of test [4] is Serratia marcesens (str 21140). The description is as above. The class given is cell-based. The settings on record: five minute sterilization cycle; pure NO at atmospheric pressure; stainless steel coupons dipped in at least 10^8 CFU/ml.
Description: as §1, §2, §3

Test [5] concerns Staphylococcus aureus (str 21769). Described as above. Type of test: cell-based. To be noted: five minute sterilization cycle; pure NO at atmospheric pressure; stainless steel coupons dipped in at least 10^8 CFU/ml.
Description: as §1, §2, §3

The test system of test [6] is Staphylococcus epidermides (str 21977). The description is as above. The class given is cell-based. To be noted: five minute sterilization cycle; pure NO at atmospheric pressure; stainless steel coupons dipped in at least 10^8 CFU/ml.
Description: as §1, §2, §3

Test [7] relates to Bacillus subtilis (spore). Kind of test: Portable system (blood storage container) sterilization of stainless steel coupons. Type of test: cell-based. The settings on record: fifteen minute sterilization cycle; NO from acidified diazeniumdiolate; 1 ATM; stainless steel coupon, at least 10^8 CFU/ml. The text has this: (§4) Similar to Example 1, a portable system is devised using blood storage containers and other laboratory items. In this construct, a blood storage container (Nexell, Irvine, Calif.; Lifecell PL732 plastic tissue culture flask) serves as the sterilization chamber. It has multiple ports, is easily attached to tubing or other chambers, and is easily cut and heat sealed for insertion and removal of contaminated/sterilized samples. The heat seal is strong and holds well at pressure, even though 1 ATM of pressure is used experimentally. Two 60 ml syringes connected to each other and a line of tubing by a three-way stopcock are employed to mix acidic buffer in one syringe with NO-releasing diazeniumdiolate in the other syringe. The tubing is connected to the blood container/sterilization chamber.
(§5) The stopcock is turned so that the acidic buffer can be added to the syringe containing the diazeniumdiolate. The valve is immediately closed to the buffer syringe and opened to the sterilization chamber. The 300 cc sterilization chamber inflates in about 15 seconds. Experiments are performed as described above, except that the devised system is used instead of the pressure vessel.
(§6) The test organisms are cultured overnight in BHI. The cultures contained at least 10^8 CFU/ml (100-fold greater than FDA testing guidelines) based on standardized ABS595 curves for each organism. Stainless steel coupons, 3×1 cm, are dipped in the cultures, and either dried in ambient air first or placed in the pressure vessel still wet from the culture dip. The dried samples are dipped in sterile BHI media before being placed in the sterilization chamber.

Test [8] concerns Serratia marcesens. The test is described as above. The class given is cell-based. To be noted: fifteen minute sterilization cycle; NO from acidified diazeniumdiolate; 1 ATM; stainless steel coupon, at least 10^8 CFU/ml.
Description: as §4, §5, §6

Test [9] deals with Staphylococcus epidermides. The description is as above. Type of test: cell-based. The settings on record: fifteen minute sterilization cycle; NO from acidified diazeniumdiolate; 1 ATM; stainless steel coupon, at least 10^8 CFU/ml.
Description: as §4, §5, §6

Test [10] has as its system B. subtilis (vegetative). The description is as above. Type of test: cell-based, Bacillus subtilis. To be noted: fifteen minute sterilization cycle; NO from acidified diazeniumdiolate; 1 ATM; stainless steel coupon, at least 10^8 CFU/ml.
Description: as §4, §5
The test organisms are cultured overnight in BHI. The cultures contained at least 10^8 CFU/ml (100-fold greater than FDA testing guidelines) based on standardized ABS595 curves for each organism. […]

For test [11], the system named is bacterial cocktail containing B. subtilis, S. marcesens, and S. epidermides. Description: Sterilization of medical materials (tubing, needle). To be noted: 15 min sterilization cycle, about 10^8 total CFU/ml. Type of test: cell-based. As for the experimental part:
An additional study is performed to test medically relevant materials such as needles and plastic tubing. Teflon (⅛′ ID), polyethylene (1.77 mm ID), vinyl (0.5 mm ID) tubing and a 30 ga. disposable needle are dipped in a bacterial cocktail containing B. subtilis, S. marcesens, and S. epidermides at about 10^8 total CFU/ml The samples are placed in the sterilization chamber and sealed. In each case, the lumen of the tubing or contained at least some visually confirmed inoculum. […] The controls for each material reached at least 10^6 total CFU/ml in 24 hrs as determined by ABS595 standardization curves.

Test [12] deals with cocktail of bacteria. Description: Humidity effects: sterilization of sealed and unsealed dry stainless steel coupons. Type of test: cell-based. The settings on record: 15 min sterilization cycle at 1 ATM, 2/2 trials. As to the method: Several humidifying paradigms and the ability to sterilize through a gas sterilization seal pouch is tested. A cocktail of bacteria is used, all grown to about 10^8 CFU/ml and mixed in equal volume. Stainless steel coupons are dipped, allowed to dry, and subject to one of three methods. Method A samples are wrapped in a moist Kimwipe, Method B samples are left dry, and Method C samples are sealed, dry, in a V. Mueller™ Dual Peel Seal Pouch, designed for gas and autoclave sterilizations. Samples from methods B and C are placed in the sterilization chamber with a moist Kimwipe, which is placed in the chamber so as to insure maximal separation of the Kimwipe and the sample to be sterilized. The chamber is re-sealed carefully so as not to disturb the positioning of the samples relative to the Kimwipe. The samples are subject to a 15 min sterilization cycle at 1 ATM, removed under sterile conditions, and the samples are placed in BHI media as described above. Control samples are handled identically except for the chamber being gassed with […]. All controls reached greater than […] total CFU/ml in 24 hrs as determined by ABS595 standardization curves.

As for `[N]=O` [NO, nitric oxide], in test [1], the “killing of 10^6 CFU/ml sporulated B. subtilis var. niger” value is “effective at killing”. Further, the “Killed (trials with no bacterial growth / trials)” value in test [2], in test [3], in [4], in test [5] and in [6] was 3/3 Killed each time. Besides, the “Killed (trials)” value in test [7] is on record as 2/2 Killed; in test [8] it was 3/3 Killed; in test [9] it was 3/3 Killed; in test [10] it was 2/2 Killed; in [11] (Disposable Needle 30 ga.), 2/2 Killed; in [11] (Polyethylene Tubing 1.77 mm ID), 2/2 Killed. Also, the “Killed (trials)” value is 2/2 Killed in test [11] (Teflon Tubing 1/8' ID); 2/2 Killed in test [11] (Vinyl Tubing 0.5 mm ID); “Killed” in [12] (Method A Moist Kimwipe Wrap); “Killed” in test [12] (Method B Dry sample, moist Kimwipe apart in chamber); “Killed” in test [12] (Method C Dry, Sealed Sample in Dual Peel Seal Pouch, moist Kimwipe apart in chamber).
